What was measured:
Assay type in all cases: functional
Pseudomonas aeruginosa [1] = test: Antimicrobial activity against Pseudomonas aeruginosa SR24 in presence of human apo-transferrin by broth microdilution method
Pseudomonas aeruginosa [2] = test: Antimicrobial activity against AmpC overproducing Pseudomonas aeruginosa SR24-12 in presence of human apo-transferrin by broth microdilution method
Pseudomonas aeruginosa [3] = test: Antimicrobial activity against IMP-1 producing Pseudomonas aeruginosa SR27001 in presence of human apo-transferrin by broth microdilution method
Pseudomonas aeruginosa [4] = test: Antimicrobial activity against IMP-1 producing Pseudomonas aeruginosa SR27060 in presence of human apo-transferrin by broth microdilution method
Pseudomonas aeruginosa [5] = test: Antimicrobial activity against Pseudomonas aeruginosa 27060deltaR1 harboring deletion of R1 plasmid in presence of human apo-transferrin by broth microdilution method
[6] = test system: Stenotrophomonas maltophilia; test: Antimicrobial activity against L-1 producing Stenotrophomonas maltophilia SR21970 in presence of human apo-transferrin by broth microdilution method
Acinetobacter baumannii = test: Antimicrobial activity against OXA-23/OXA-58 producing Acinetobacter baumannii SR27323 in presence of human apo-transferrin by broth microdilution method
Klebsiella pneumoniae = test: Antimicrobial activity against KPC-2 producing Klebsiella pneumoniae ATCC BAA-1705 in presence of human apo-transferrin by broth microdilution method
Escherichia coli = test: Antimicrobial activity against SHV-4 producing Escherichia coli ATCC BAA-200 in presence of human apo-transferrin by broth microdilution method
Pseudomonas aeruginosa [7] = test: Antimicrobial activity against VIM-2 producing Pseudomonas aeruginosa SBRKM-28 in presence of human apo-transferrin by broth microdilution method

Row | Structure (SMILES) | MIC (Pseudomonas aeruginosa [1]) [µg/mL] | MIC (Pseudomonas aeruginosa [2]) [µg/mL] | MIC (Pseudomonas aeruginosa [3]) [µg/mL] | MIC (Pseudomonas aeruginosa [4]) [µg/mL] | MIC (Pseudomonas aeruginosa [5]) [µg/mL] | MIC [6] [µg/mL] | MIC (Acinetobacter baumannii) [µg/mL] | MIC (Klebsiella pneumoniae) [µg/mL] | MIC (Escherichia coli) [µg/mL] | MIC (Pseudomonas aeruginosa [7]) [µg/mL]
1 | NCC[N+]1(CC2=C(C(=O)[O-])N3C(=O)[C@@H](NC(=O)/C(=N\O[C@@H](CNC(=O)c4ccc(O)c(O)c4Cl)C(=O)O)c4csc(N)n4)[C@H]3SC2)CCCC1 | 0.125 | 0.063 | 0.5 | 0.125 | 0.063 | 16 | 0.5 | 0.125 | 8 | –
2 | CC(C)(O/N=C(\C(=O)N[C@@H]1C(=O)N2C(C(=O)[O-])=C(C[n+]3cccc4c3CCCN4C(=O)c3ccc(O)c(O)c3Cl)CS[C@H]12)c1csc(N)n1)C(=O)O | – | – | 4 | 4 | – | 0.5 | – | – | – | 0.125
3 | CC(C)(O/N=C(\C(=O)N[C@@H]1C(=O)N2C(C(=O)[O-])=C(C[N+]3(C)CCN(C(=O)c4ccc(O)c(O)c4Cl)CC3)CS[C@H]12)c1csc(N)n1)C(=O)O | 0.125 | 0.125 | 4 | 8 | 0.25 | 1 | 1 | 0.125 | 32 | –
4 | Nc1nc(/C(=N/OCc2cccc(C(=O)O)c2)C(=O)N[C@@H]2C(=O)N3C(C(=O)[O-])=C(C[N+]4(CCNC(=O)c5ccc(O)c(O)c5Cl)CCCC4)CS[C@H]23)cs1 | 0.25 | 0.5 | 1 | 8 | 2 | 2 | 0.5 | 2 | 16 | 0.125
5 | CC(C)(O/N=C(\C(=O)N[C@@H]1C(=O)N2C(C(=O)[O-])=C(C[N+]3(CCNC(=O)c4ccc(=O)n(O)c4)CCCC3)CS[C@H]12)c1csc(N)n1)C(=O)O | 2 | 2 | 16 | 8 | 4 | 4 | 32 | 2 | 8 | –
6 | CC(C)(O/N=C(\C(=O)N[C@@H]1C(=O)N2C(C(=O)[O-])=C(C[N+]3(CCNC(=O)c4ccc(O)c(O)c4Cl)CCCCC3)CS[C@H]12)c1csc(N)n1)C(=O)O | 0.25 | 0.25 | 1 | 2 | 1 | 0.25 | 1 | 0.031 | 0.5 | 0.125
7 | NCC[N+]1(CC2=C(C(=O)[O-])N3C(=O)[C@@H](NC(=O)/C(=N\OC[C@H](NC(=O)c4ccc(O)c(O)c4Cl)C(=O)O)c4csc(N)n4)[C@H]3SC2)CCCC1 | 0.125 | 0.25 | 0.25 | 0.125 | 0.063 | > 32 | 4 | 0.25 | > 32 | –
8 | CC(C)(O/N=C(\C(=O)N[C@@H]1C(=O)N2C(C(=O)[O-])=C(C[N+]3(CCCNC(=O)c4ccc(O)c(O)c4Cl)CCCC3)CS[C@H]12)c1csc(N)n1)C(=O)O | 0.5 | 0.5 | 1 | 1 | 0.25 | 0.125 | – | – | – | 0.125
9 | CC(C)(O/N=C(\C(=O)N[C@@H]1C(=O)N2C(C(=O)[O-])=C(C[N+]3(Cc4nnc(-c5ccc(O)c(O)c5Cl)o4)CCCC3)CS[C@H]12)c1csc(N)n1)C(=O)O | 0.5 | 0.5 | 2 | 2 | 0.5 | 0.5 | – | – | – | 0.125
10 | C[N+]1(CC2=C(C(=O)[O-])N3C(=O)[C@@H](NC(=O)/C(=N\O[C@@H](CNC(=O)c4ccc(O)c(O)c4Cl)C(=O)O)c4csc(N)n4)[C@H]3SC2)CCCC1 | 0.125 | 0.5 | 8 | 4 | 0.5 | 16 | 1 | 0.25 | > 32 | –
11 | CC(C)(O/N=C(\C(=O)N[C@@H]1C(=O)N2C(C(=O)[O-])=C(C[N+]3(CCN)CCCC3)CS[C@H]12)c1csc(N)n1)C(=O)O | 2 | 8 | 32 | 16 | 4 | > 32 | 8 | 8 | 16 | –
12 | CO/N=C(\C(=O)N[C@@H]1C(=O)N2C(C(=O)[O-])=C(C[N+]3(CCNC(=O)c4ccc(O)c(O)c4Cl)CCCC3)CS[C@H]12)c1csc(N)n1 | – | – | 4 | 32 | – | 2 | – | – | – | 0.5
13 | CC(C)(O/N=C(\C(=O)N[C@@H]1C(=O)N2C(C(=O)[O-])=C(C[N+]3(CCNC(=O)c4[nH]cc(O)c(=O)c4Cl)CCCC3)CS[C@H]12)c1csc(N)n1)C(=O)O | 2 | 24 | – | > 32 | 8 | 4 | 32 | 2 | 16 | 4
14 | COc1c(C(=O)NCC[N+]2(CC3=C(C(=O)[O-])N4C(=O)[C@@H](NC(=O)/C(=N\OC(C)(C)C(=O)O)c5csc(N)n5)[C@H]4SC3)CCCC2)ccc(O)c1O | 0.125 | 0.125 | 4 | 4 | 2 | 2 | 1 | 0.25 | 8 | –
15 | C[C@@H](C[N+]1(CC2=C(C(=O)[O-])N3C(=O)[C@@H](NC(=O)/C(=N\OC(C)(C)C(=O)O)c4csc(N)n4)[C@H]3SC2)CCCC1)NC(=O)c1ccc(O)c(O)c1Cl | 0.25 | 0.25 | 1 | 2 | 0.25 | 0.25 | – | – | – | 0.125
16 | CC(C)(O/N=C(\C(=O)N[C@@H]1C(=O)N2C(C(=O)[O-])=C(C[N+]34CCC(CC3)N(C(=O)c3ccc(O)c(O)c3Cl)CC4)CS[C@H]12)c1csc(N)n1)C(=O)O | 0.25 | 0.25 | 1 | 4 | 1 | 0.125 | – | – | – | 0.125
17 | CN(CC[N+]1(CC2=C(C(=O)[O-])N3C(=O)[C@@H](NC(=O)/C(=N\OC(C)(C)C(=O)O)c4csc(N)n4)[C@H]3SC2)CCCC1)C(=O)c1ccc(O)c(O)c1Cl | 0.5 | 0.5 | 1 | 1 | 0.5 | 0.25 | – | – | – | 0.125
18 | C[N+]1(CC2=C(C(=O)[O-])N3C(=O)[C@@H](NC(=O)/C(=N\OC[C@H](NC(=O)c4ccc(O)c(O)c4Cl)C(=O)O)c4csc(N)n4)[C@H]3SC2)CCCC1 | 0.125 | 1 | 4 | 4 | 2 | 8 | – | – | – | 0.125
19 | CC(C)(O/N=C(\C(=O)N[C@@H]1C(=O)N2C(C(=O)[O-])=C(C[n+]3cc4cc(NC(=O)c5ccc(O)c(O)c5Cl)ccn4c3)CS[C@H]12)c1csc(N)n1)C(=O)O | 0.25 | 2 | > 32 | > 32 | 4 | > 32 | 0.5 | 0.25 | 4 | –
20 | CC(C)(O/N=C(\C(=O)N[C@@H]1C(=O)N2C(C(=O)[O-])=C(C[N+]3(C)C[C@H]4C[C@@H]3CN4C(=O)c3ccc(O)c(O)c3Cl)CS[C@H]12)c1csc(N)n1)C(=O)O (stereo not given in full) | 0.25 | 0.5 | 2 | 4 | 2 | 0.5 | – | – | – | 0.25
21 | CC(C)(O/N=C(\C(=O)N[C@@H]1C(=O)N2C(C(=O)[O-])=C(C[N+]3(CCNC(=O)c4ccc(O)c(O)c4Cl)CCCC3)CS[C@H]12)c1nsc(N)n1)C(=O)O | 0.25 | 0.25 | 1 | 1 | 0.25 | 0.25 | – | – | – | 0.25
22 | CC(C)(O/N=C(\C(=O)N[C@@H]1C(=O)N2C(C(=O)[O-])=C(C[N+]3(CCNC(=O)Nc4ccc(O)c(O)c4Cl)CCCC3)CS[C@H]12)c1csc(N)n1)C(=O)O | 1 | 1 | 4 | 8 | 2 | 4 | – | – | – | 0.5
23 | CC(C)(O/N=C(\C(=O)N[C@@H]1C(=O)N2C(C(=O)[O-])=C(C[n+]3ccc(-c4ccc(O)c(O)c4Cl)cc3)CS[C@H]12)c1csc(N)n1)C(=O)O (stereo in doubt) | – | – | > 64 | 16 | – | 1 | – | – | – | 0.25
24 | CC(C)(O/N=C(\C(=O)N[C@@H]1C(=O)N2C(C(=O)[O-])=C(C[N@@+]3(C)C[C@H]4CN(C(=O)c5ccc(O)c(O)c5Cl)C[C@H]4C3)CS[C@H]12)c1csc(N)n1)C(=O)O | 0.25 | 0.25 | 4 | 4 | 0.5 | 0.5 | – | – | – | 0.125
25 | COc1c(O)ccc(C(=O)NCC[N+]2(CC3=C(C(=O)[O-])N4C(=O)[C@@H](NC(=O)/C(=N\OC(C)(C)C(=O)O)c5csc(N)n5)[C@H]4SC3)CCCC2)c1Cl | 2 | 8 | 32 | – | – | 28 | > 32 | 4 | 16 | 16
26 | C[C@@H](O)[C@H]1C(=O)N2C(C(=O)O)=C(S[C@@H]3CN[C@H](C(=O)N(C)C)C3)[C@H](C)[C@H]12 [MEROPENEM] | ≤ 0.063 | 0.125 | – | – | – | > 64 | – | – | ≤ 0.063 | –
